Results: ChEMBL document CHEMBL1201862, “PubChem BioAssay data set” (2004)
Blank lines part the entries; values can stand above or below the compound they belong to. Calls of active or inactive are those of the source.

What was measured:
[1] = biological target: T1, Eukaryotic translation initiation factor 4H (Homo sapiens, UniProt Q15056); test: human eIF4H binding inhibitors, primary screen, translation initiation inhibitor project, biochemical, uHTS, fluorescence polarization (AID 2012)
Estrogen receptor beta = Estrogen receptor beta (Homo sapiens, UniProt Q92731);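 also: recombinant ER-beta bound to coactivator SRC1 peptide in presence of estradiol agonist; inhibitors block coactivator peptide binding and lower the FRET signal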
[2] = biological target: T2, Polyadenylate-binding protein 1 (Homo sapiens, UniProt P11940); test: PABP poly(A) RNA binding inhibitors, primary screen, biochemical, fluorescence polarization, uHTS (AID 2014)
[3] = biological target: T1, Eukaryotic translation initiation factor 4H; test: eIF4H inhibition in translation initiation, SAR follow-up (AID 435011); assay type: functional
[4] = biological target: T2, Polyadenylate-binding protein 1; test: PABP inhibition in translation initiation, SAR follow-up (AID 435018); assay type: functional
[5] = biological target: T2, Polyadenylate-binding protein 1; test: SAR analysis for the identification of translation initiation inhibitors (PABP) via an Electrophoretic Mobility Shift Dose Response Assay. [Related pubchem assays (depositor defined):AID2012, AID2014, AID2030]; assay type: functional
Exodeoxyribonuclease V = Exodeoxyribonuclease V (Escherichia coli (strain K12), UniProt P04993+P07648+P08394); test: E. coli RecBCD inhibitors, dose response, counter-screen for AddAB inhibitor project, absorbance, V66 E. coli, mutant T4 phage (AID 492957); assay type: functional, cell-based, Escherichia coli str. K-12 substr. MG1655
[6] = Counterscreen for AddAB inhibitors: absorbance-based bacterial cell-based high throughput dose response assay for inhibitors of bacterial viability. [Related pubchem assays (depositor defined):AID435030, AID449728, AID449731, AID488942, AID488955, AID488956]; assay type: functional
[7] = biological target: Lysine-specific demethylase 4A (Homo sapiens, UniProt O75164); test: JMJD2A histone demethylase inhibitors, dose response, selectivity assay for GASC-1 inhibitor project, biochemical, DELFIA europium, cherry-picked samples (AID 488840)
[8] = biological target: Lysine-specific demethylase 4C (Homo sapiens, UniProt Q9H3R0); test: GASC-1 (JMJD2C) histone demethylase inhibitors, dose response, biochemical, DELFIA europium, cherry-picked samples (AID 488835); assay type: functional
[9] = biological target: Kappa-type opioid receptor (Homo sapiens, UniProt P41145); test: SAR analysis of small molecule agonists of the kappa opioid receptor via a luminescent beta-arrestin assay - Set 3. [Related pubchem assays (depositor defined):AID1777, AID1785, AID1786, AID1966, AID2133, AID2136, AID2284, AID2500]; assay type: functional
[10] = biological target: Intestinal-type alkaline phosphatase (Mus musculus, UniProt P24822); test: PubChem AID 488874; assay type: functional
[11] = biological target: T3, Intestinal-type alkaline phosphatase (Homo sapiens, UniProt P09923); test: human intestinal alkaline phosphatase activators, dose response, biochemical, luminescence, uHTS hits (AID 463120); assay type: functional
[12] = biological target: T3, Intestinal-type alkaline phosphatase; test: human IAP activators, dose response, biochemical, luminescent, uHTS hits, set 2 (AID 488817); assay type: functional;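 also: potency of activators that raise enzyme activity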
[13] = biological target: T4, Alkaline phosphatase, tissue-nonspecific isozyme (Homo sapiens, UniProt P05186); test: TNAP enzyme activators, dose response, selectivity assay for human IAP activator project, biochemical, TNAP isozyme, human IAP uHTS hits (AID 488886); assay type: functional;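 also: potency of compounds raising TNAP activity as a selectivity check on IAP activators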
T4 sequence (P05186 whole entry): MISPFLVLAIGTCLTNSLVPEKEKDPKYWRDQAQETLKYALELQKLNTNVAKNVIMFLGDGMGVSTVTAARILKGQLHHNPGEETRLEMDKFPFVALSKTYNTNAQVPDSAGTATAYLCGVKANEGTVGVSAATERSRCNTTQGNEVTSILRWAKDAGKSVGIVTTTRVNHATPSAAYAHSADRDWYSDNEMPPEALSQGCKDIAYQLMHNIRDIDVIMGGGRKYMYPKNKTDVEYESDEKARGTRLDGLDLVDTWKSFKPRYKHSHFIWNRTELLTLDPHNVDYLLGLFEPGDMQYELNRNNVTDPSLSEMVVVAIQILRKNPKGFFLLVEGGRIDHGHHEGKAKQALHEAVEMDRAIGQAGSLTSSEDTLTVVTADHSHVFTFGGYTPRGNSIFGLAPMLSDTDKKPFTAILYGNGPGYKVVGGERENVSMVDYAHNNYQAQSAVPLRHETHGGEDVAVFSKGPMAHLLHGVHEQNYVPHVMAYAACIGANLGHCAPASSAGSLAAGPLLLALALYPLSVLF

T2 sequence (P11940 whole entry): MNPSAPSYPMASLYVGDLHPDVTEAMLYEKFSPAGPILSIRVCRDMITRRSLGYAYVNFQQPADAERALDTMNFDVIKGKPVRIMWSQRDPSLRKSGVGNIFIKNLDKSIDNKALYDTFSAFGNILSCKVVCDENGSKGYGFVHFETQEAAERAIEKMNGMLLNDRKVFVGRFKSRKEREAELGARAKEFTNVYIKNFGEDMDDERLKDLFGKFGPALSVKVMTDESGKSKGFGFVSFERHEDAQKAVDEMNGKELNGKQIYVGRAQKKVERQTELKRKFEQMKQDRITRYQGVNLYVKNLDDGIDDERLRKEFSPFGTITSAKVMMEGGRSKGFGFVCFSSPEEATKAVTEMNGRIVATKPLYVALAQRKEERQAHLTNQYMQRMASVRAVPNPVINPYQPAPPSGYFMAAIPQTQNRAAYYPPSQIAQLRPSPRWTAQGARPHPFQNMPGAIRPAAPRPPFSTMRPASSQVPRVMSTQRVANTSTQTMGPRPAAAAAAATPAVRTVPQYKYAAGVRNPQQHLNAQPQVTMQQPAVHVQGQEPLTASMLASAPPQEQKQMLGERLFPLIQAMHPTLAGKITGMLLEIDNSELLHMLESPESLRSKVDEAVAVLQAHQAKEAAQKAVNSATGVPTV
T3 sequence (P09923 whole entry): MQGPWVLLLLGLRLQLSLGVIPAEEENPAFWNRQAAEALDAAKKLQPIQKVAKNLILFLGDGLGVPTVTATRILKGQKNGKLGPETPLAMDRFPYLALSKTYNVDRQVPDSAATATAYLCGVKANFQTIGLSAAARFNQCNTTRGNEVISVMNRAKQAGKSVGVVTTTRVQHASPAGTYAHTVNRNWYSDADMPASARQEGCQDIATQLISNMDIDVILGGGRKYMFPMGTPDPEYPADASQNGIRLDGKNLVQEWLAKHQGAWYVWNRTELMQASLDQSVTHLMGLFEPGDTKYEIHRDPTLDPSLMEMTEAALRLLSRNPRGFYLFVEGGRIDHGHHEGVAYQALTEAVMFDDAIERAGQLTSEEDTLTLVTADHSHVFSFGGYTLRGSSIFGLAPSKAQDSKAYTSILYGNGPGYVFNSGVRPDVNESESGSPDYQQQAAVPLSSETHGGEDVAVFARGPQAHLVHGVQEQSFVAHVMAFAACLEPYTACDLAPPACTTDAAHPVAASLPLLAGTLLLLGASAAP
Chain of Estrogen receptor beta (Q92731 whole entry): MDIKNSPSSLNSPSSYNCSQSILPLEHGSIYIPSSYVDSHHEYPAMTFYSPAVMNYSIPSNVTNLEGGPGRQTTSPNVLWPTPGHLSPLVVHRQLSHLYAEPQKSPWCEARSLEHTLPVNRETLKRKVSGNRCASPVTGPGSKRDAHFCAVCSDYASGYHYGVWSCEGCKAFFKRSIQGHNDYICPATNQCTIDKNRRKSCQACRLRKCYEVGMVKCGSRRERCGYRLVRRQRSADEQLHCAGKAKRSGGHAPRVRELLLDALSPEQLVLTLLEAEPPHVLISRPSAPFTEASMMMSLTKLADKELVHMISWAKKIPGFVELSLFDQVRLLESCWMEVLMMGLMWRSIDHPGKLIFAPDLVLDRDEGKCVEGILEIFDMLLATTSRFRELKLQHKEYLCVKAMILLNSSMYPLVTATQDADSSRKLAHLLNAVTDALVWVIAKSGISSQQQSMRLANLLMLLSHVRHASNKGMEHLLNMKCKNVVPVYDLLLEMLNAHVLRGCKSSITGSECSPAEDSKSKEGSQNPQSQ
Chain of Exodeoxyribonuclease V (P04993 whole entry): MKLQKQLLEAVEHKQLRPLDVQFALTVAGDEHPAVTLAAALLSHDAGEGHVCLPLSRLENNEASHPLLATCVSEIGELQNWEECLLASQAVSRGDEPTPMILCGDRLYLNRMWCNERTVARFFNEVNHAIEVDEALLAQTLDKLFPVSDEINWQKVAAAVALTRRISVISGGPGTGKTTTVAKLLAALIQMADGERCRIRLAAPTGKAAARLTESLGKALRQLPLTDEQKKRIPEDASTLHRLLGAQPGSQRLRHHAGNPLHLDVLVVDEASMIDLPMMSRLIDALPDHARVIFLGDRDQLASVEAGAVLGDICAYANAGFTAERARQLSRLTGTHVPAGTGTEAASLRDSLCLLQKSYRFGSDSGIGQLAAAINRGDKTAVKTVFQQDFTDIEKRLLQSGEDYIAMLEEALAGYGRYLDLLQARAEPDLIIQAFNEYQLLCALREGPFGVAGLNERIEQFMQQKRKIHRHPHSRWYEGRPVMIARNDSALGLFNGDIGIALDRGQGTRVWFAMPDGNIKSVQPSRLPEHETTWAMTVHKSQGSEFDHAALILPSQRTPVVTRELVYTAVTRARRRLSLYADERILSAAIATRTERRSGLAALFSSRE
Chain of Exodeoxyribonuclease V (P07648 whole entry): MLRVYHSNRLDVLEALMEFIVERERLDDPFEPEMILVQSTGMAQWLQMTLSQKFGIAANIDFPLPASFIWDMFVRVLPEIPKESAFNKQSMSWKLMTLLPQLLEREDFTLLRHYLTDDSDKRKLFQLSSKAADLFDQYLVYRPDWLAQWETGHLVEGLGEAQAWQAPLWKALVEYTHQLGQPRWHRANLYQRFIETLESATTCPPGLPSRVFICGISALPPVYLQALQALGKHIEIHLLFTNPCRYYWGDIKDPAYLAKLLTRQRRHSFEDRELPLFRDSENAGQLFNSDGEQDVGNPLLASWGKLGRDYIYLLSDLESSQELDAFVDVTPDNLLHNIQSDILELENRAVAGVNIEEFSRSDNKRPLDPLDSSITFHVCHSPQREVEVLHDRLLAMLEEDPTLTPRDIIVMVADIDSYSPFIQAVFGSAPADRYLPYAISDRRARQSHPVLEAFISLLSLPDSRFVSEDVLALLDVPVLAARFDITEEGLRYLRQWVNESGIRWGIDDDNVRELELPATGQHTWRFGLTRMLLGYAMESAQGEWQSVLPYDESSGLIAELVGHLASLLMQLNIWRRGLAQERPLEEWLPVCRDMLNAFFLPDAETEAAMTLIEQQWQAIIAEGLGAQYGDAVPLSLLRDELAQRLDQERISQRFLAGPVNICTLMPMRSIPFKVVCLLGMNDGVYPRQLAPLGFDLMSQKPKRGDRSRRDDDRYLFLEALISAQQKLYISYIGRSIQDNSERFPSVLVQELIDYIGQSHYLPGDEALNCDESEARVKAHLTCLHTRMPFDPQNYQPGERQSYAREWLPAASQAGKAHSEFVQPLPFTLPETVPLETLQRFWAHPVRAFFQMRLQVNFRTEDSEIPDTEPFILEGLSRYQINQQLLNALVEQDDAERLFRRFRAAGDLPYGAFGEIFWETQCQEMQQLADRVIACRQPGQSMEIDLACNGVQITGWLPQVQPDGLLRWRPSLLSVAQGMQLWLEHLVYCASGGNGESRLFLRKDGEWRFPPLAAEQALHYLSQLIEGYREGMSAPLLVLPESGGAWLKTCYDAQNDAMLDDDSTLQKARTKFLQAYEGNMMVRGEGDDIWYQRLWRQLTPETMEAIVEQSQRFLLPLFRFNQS
Chain of Exodeoxyribonuclease V (P08394 whole entry): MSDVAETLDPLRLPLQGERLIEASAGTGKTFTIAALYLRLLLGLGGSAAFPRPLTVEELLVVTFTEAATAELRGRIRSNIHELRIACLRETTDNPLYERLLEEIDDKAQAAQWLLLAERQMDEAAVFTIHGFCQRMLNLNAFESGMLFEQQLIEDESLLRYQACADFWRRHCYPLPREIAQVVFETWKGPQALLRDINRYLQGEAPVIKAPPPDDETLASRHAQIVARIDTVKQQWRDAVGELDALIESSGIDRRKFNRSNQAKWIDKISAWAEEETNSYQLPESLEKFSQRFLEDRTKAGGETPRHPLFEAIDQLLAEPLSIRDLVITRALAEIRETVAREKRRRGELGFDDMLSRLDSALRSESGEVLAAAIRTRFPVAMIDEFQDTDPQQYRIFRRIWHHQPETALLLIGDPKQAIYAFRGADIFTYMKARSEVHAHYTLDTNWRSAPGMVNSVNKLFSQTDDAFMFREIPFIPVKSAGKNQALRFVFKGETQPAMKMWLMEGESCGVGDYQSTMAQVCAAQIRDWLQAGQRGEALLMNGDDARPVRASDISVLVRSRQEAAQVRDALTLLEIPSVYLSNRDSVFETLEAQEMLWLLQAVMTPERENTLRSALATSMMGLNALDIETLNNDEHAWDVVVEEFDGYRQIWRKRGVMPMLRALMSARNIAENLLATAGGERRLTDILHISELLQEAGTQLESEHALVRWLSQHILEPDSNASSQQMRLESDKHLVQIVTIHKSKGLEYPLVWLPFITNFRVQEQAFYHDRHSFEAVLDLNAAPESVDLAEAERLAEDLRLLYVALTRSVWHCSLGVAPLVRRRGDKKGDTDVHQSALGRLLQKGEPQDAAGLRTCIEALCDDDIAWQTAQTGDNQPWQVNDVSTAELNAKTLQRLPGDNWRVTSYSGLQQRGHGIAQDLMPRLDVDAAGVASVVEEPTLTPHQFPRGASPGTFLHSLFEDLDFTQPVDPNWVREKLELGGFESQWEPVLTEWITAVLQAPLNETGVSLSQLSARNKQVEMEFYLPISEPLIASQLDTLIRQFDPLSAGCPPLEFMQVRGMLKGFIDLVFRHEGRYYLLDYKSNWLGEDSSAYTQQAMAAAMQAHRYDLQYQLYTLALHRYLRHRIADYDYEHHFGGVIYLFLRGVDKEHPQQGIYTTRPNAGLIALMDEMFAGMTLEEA

SMILES: CCOC(=O)N1CCC(NC(=O)c2cccc3c2C(=O)N(c2ccc(OC)cc2)C3)CC1
IC50 [1]: 9.51 µM (active)
IC50 (Estrogen receptor beta): > 50 µM (not active)
IC50 [2]: 76.2 µM (active)
IC50 [3]: 6.47 µM (active)
IC50 [4]: > 100 µM (inactive)
IC50 [5]: 10 µM (active)

SMILES: O=C(CSc1nc2ccccc2o1)Nc1ccc(N2CCOCC2)cc1
IC50 (Exodeoxyribonuclease V): > 119 µM (inactive)
IC50 [6]: > 119 µM (inactive)

Now from value to compound:

AC50 [7]: 12.2 µM (active)
AC50 [8]: 4.19 µM (active)
SMILES: CCCCn1c(-c2ccsc2)nc2c1c(=O)[nH]c(=O)n2CCC

EC50 [9]: > 20 µM (inactive)
SMILES: Brc1ccc(CSc2nnc(-c3ccncc3)n2Cc2ccco2)cc1

IC50 [10]: > 100 µM (inactive)
EC50 [11]: 29.1 µM (active)
EC50 [12]: 100 µM (inactive)
EC50 [13]: > 100 µM (inactive)
SMILES: CCOc1cc(/C=N/NC(=O)C(=O)N/N=C/c2ccc(O)c(OCC)c2)ccc1O
